Patent US11731986B2 (Sanford Burnham Prebys Medical Discovery Institute, priority 2017, dated 2023)

Molecular target: T1, human LMPTP-A (Homo sapiens, UniProt P24666)
T1 sequence (P24666 1-158): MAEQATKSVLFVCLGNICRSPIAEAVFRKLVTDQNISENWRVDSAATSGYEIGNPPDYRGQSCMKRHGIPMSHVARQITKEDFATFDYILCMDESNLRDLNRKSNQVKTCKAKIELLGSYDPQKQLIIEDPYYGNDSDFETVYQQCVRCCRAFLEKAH
Test: Enzyme Assay of Inhibition of LMPTP-A (phosphatase assay, OMFP or pNPP substrate)
Assay type: biochemical
Conditions: Bis-Tris pH 6.0, 37° C.
Summary of the method: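 Buffer 50 mM Bis-Tris pH 6.0, 1 mM DTT, 0.01% Triton X-100, 37 °C; OMFP read continuously (485/525 nm) or pNPP stopped with NaOH, 405 nm. IC50 from concentration vs % activity. Selectivity: 40 μM compound with 0.4 mM OMFP or 5 mM pNPP; reversibility: 50 nM enzyme, 10 μM compound, 5 min, 100× dilution.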

Row | Compound | IC50 [nM]
1 | O=C(NCCCN1CCCCC1)c1ccc(-c2cc(NCc3ccncc3)c3cnccc3n2)cc1 [N-(3-(Piperidin-1-yl)propyl)-4-(4-((pyridin-4-ylmethyl)amino)-1,6-naphthyridin-2-yl)benzamide] | 1000 to 20000
2 | O=C(NCCCN1CCCCC1)c1ccc(-c2cc(NC3CCOCC3)c3cnccc3n2)cc1 [N-(3-(Piperidin-1-yl)propyl)-4-(4-((tetrahydro-2H-pyran-4-yl)amino)-1,6-naphthyridin-2-yl)benzamide] | 1000 to 20000
3 | O=C(NCCCN1CCCCC1)c1ccc(-c2cc(NC3CCNCC3)c3cnccc3n2)cc1 [N-(3-(Piperidin-1-yl)propyl)-4-(4-(piperidin-4-ylamino)-1,6-naphthyridin-2-yl)benzamide] | 1000 to 20000
4 | O=C(NCCCN1CCCCC1)c1ccc(-c2cc(NC3CCNC3)c3cnccc3n2)cc1 (stereo not drawn) [N-(3-(Piperidin-1-yl)propyl)-4-(4-(pyrrolidin-3-ylamino)-1,6-naphthyridin-2-yl)benzamide] | 1000 to 20000
5 | O=C(NCCCN1CCCCC1)c1cc2ccc(-c3cc(NCCCN4CCCCC4)c4cnccc4n3)cc2[nH]1 [N-(3-(Piperidin-1-yl)propyl)-6-(4-(3-(piperidin-1-yl)propylamino)-1,6-naphthyridin-2-yl)-1H-indole-2-carboxamide] | 1000 to 20000
6 | O=C(COCc1ccc(-c2cc(NCCCN3CCCCC3)c3cnccc3n2)cc1)NCCCN1CCCCC1 [N-(3-(piperidin-1-yl)propyl)-2-((4-(4-((3-(piperidin-1-yl)propyl)amino)-1,6-naphthyridin-2-yl)benzyl)oxy)acetamide] | 1000 to 20000
7 | O=C(NCCCN1CCCCC1)c1cc2cc(-c3cc(NCCCN4CCCCC4)c4cnccc4n3)ccc2s1 [N-(3-(piperidin-1-yl)propyl)-5-(4-(3-(piperidin-1-yl)propylamino)-1,6-naphthyridin-2-yl)benzo[b]thiophene-2-carboxamide] | 1000 to 20000
8 | O=C(NCCCN1CCCCC1)c1nc2cc(-c3cc(NCCCN4CCCCC4)c4cnccc4n3)ccc2[nH]1 [N-(3-(piperidin-1-yl)propyl)-5-(4-((3-(piperidin-1-yl)propyl)amino)-1,6-naphthyridin-2-yl)-1H-benzo[d]imidazole-2-carboxamide] | ≤ 1000
9 | methyl-N-(1-methylpiperidin-4-yl)-5-(4-((3-(piperidin-1-yl)propyl)amino)-1,6-naphthyridin-2-yl)-1H-pyrrolo[3,2-b]pyridine-2-carboxamide | 1000 to 20000

The remaining lines, values ahead:

Row | IC50 [nM] | Compound
10 | ≥ 20000 | O=C(NCCCN1CCCCC1)c1ccc(-c2cc(NCCCN3CCCCC3)c3cnccc3n2)cn1 [N-(3-(piperidin-1-yl)propyl)-5-(4-((3-(piperidin-1-yl)propyl)amino)-1,6-naphthyridin-2-yl)picolinamide]
11 | ≤ 1000 | O=C(NCCCN1CCCCC1)c1nc2cc(-c3cc(Nc4ccc(CN5CCCC5)cc4)c4cnccc4n3)ccc2[nH]1 [N-(3-(piperidin-1-yl)propyl)-5-(4-((4-(pyrrolidin-1-ylmethyl)phenyl)amino)-1,6-naphthyridin-2-yl)-1H-benzo[d]imidazole-2-carboxamide]
12 | ≤ 1000 | O=C(NCCCN1CCCCC1)c1cc2ccc(-c3cc(NCCCN4CCCCC4)c4cnccc4n3)cc2s1 [N-(3-(piperidin-1-yl)propyl)-6-(4-(3-(piperidin-1-yl)propylamino)-1,6-naphthyridin-2-yl)benzo[b]thiophene-2-carboxamide]
13 | ≤ 1000 | CN1CCC(CNC(=O)CCc2ccc(-c3cc(NCCCN4CCCCC4)c4cnccc4n3)cc2)CC1 [N-((1-Methylpiperidin-4-yl)methyl)-3-(4-(4-(3-(piperidin-1-yl)propylamino)-1,6-naphthyridin-2-yl)phenyl)propanamide]
14 | 1000 to 20000 | CCN1CCC(CNC(=O)COCc2ccc(-c3cc(NCCCN4CCCCC4)c4cnccc4n3)cc2)CC1 [N-((1-ethylpiperidin-4-yl)methyl)-2-(4-(4-(3-(piperidin-1-yl)propylamino)-1,6-naphthyridin-2-yl)benzyloxy)acetamide]
15 | ≥ 20000 | CCN1CCC(CNC(=O)CCOc2ccc(-c3cc(NCCCN4CCCCC4)c4cnccc4n3)cc2)CC1 [N-((1-ethylpiperidin-4-yl)methyl)-3-(4-(4-((3-(piperidin-1-yl)propyl)amino)-1,6-naphthyridin-2-yl)phenoxy)propanamide]
16 | ≤ 1000 | CN1CCC(CNC(=O)COCc2ccc(-c3cc(NCCCN4CCCCC4)c4cnccc4n3)cc2)CC1 [N-((1-methylpiperidin-4-yl)methyl)-2-(4-(4-(3-(piperidin-1-yl)propylamino)-1,6-naphthyridin-2-yl)benzyloxy)acetamide]
17 | 1000 to 20000 | CN1CCC(CNC(=O)C#Cc2ccc(-c3cc(NCCCN4CCCCC4)c4cnccc4n3)cc2)CC1 [N-((1-methylpiperidin-4-yl)methyl)-3-(4-(4-((3-(piperidin-1-yl)propyl)amino)-1,6-naphthyridin-2-yl)phenyl)propiolamide]
18 | ≤ 1000 | O=C(c1cc2ccc(-c3cc(NCCCN4CCCCC4)c4cnccc4n3)cc2s1)N1CCNCC1 [Piperazin-1-yl(6-(4-(3-(piperidin-1-yl)propylamino)-1,6-naphthyridin-2-yl)benzo[b]thiophen-2-yl)methanone]
19 | 1000 to 20000 | O=C(c1nc2ccc(-c3cc(NCCCN4CCCCC4)c4cnccc4n3)cc2s1)N1CCNCC1 [Piperazin-1-yl(6-(4-(3-(piperidin-1-yl)propylamino)-1,6-naphthyridin-2-yl)benzo[d]thiazol-2-yl)methanone]
20 | ≤ 1000 | CCOC(=O)c1cc2cc(-c3cc(NCCCN4CCCCC4)c4cnccc4n3)ccc2n1C [ethyl 1-methyl-5-(4-((3-(piperidin-1-yl)propyl)amino)-1,6-naphthyridin-2-yl)-1H-indole-2-carboxylate]
21 | 1000 to 20000 | COC(=O)c1ccc(-c2cc(NCCCN3CCCCC3)c3cnccc3n2)c(C(N)=O)c1 [methyl 3-carbamoyl-4-(4-((3-(piperidin-1-yl)propyl)amino)-1,6-naphthyridin-2-yl)benzoate]
